Three compounds from patent US11426381B2, “Lipoic acid choline ester compositions and methods of use” (NOVARTIS AG, priority 2014, dated 2022) can be followed below.

For data set [1], the system named is mouse lenses (C57BL/6J). Put plainly: In vitro mouse lens elasticity (coverslip method). As to conditions: eight month old mouse lenses, 12 hours incubation. The procedure: (§1) In vitro test: Eight month old mouse lenses (C57BL/6J) were incubated for 12 hours in medium supplemented with selected levels (0-500 μM) of lipoic acid (LA). Lens elasticity was measured using the coverslip method known. After elasticity measurements, lenses were homogenized in a dissociation medium containing alkylating agent 1 (free SH modification). The homogenate was filtered and the rinsed, resuspended, retentate was treated with reducing agent (TCEP) and alkylating agent 2 (S-S SHs modified). After filtration and rinses, the levels of alkylated SH groups in retentate 2 was determined. Bovine serum albumin was the positive control for the sulfhydryl analysis.

For data set [2], the system named is lens protein disulfides. Description: In vitro mouse lens protein disulfide analysis. Particulars: eight month old mouse lenses, 12 hours incubation. The procedure:
as §1

The nature of data set [3]: Stability of LACE chloride in propylene glycol (HPLC potency). Format: physicochemical. As to conditions: 1.0% in propylene glycol. Here is the method:
The HPLC method to analyze LACE Chloride used a Phenomenex Luna CN column with a 5 um particle size, 100 A pore size, 2.0 mm inner diameter, and 50 mm length (PN: 00B-4255-B0). The mobile phase consisted of 50% of 0.1 M Sodium Acetate and 50% Acetonitrile. The flow rate was 1.0 mL/min, the detection wavelength was 225 nm, the column temperature was 40° C., the injection volume was 20 uL, and the run time was 50 minutes. The working LACE chloride concentration was 0.1 mg/mL and plastic HPLC vials were used for the analysis.
A solution of LACE chloride in propylene glycol was prepared to determine its stability. A solution of 1.0% LACE chloride in propylene glycol was prepared and stored at −20° C. (ambient RH), 5° C. (ambient RH), and 25° C. (40% RH). The solutions were tested for LACE chloride potency after storage for 3 months.
In these samples, HPLC analysis (using the method described in Example 2) a peak with relative retention time (RRT) of approximately 0.73. […] No additional peaks are detected. The peak at 0.73 RRT is not detected in the LACE chloride solutions in citrate buffer.

Data set [4] has as its system New Zealand white rabbits. Description: Draize test for eye drop ocular safety. Format: in vivo, rabbit. As to conditions: EV06 3%-5%. The procedure:
Safety of the EV06 was evaluated by the Draize test to evaluate its use at concentrations as high as 5%. The Draize Test is an acute toxicity test devised in 1944 by Food and Drug Administration (FDA) toxicologists John H. Draize and Jacob M. Spines. Initially used for testing cosmetics, the procedure involves applying 0.5 mL or 0.5 g of a test substance to the eye or skin of a restrained, conscious animal, and then leaving it for set amount of time before rinsing it out and recording its effects. Corneal, iris, and conjunctival responses were evaluated using the scale described by Draize et al., J. Pharmacol. & Exp. Therapeutics, 82:377-390 (1944)]. Because of the importance of the cornea to vision, 73% of the Draize score is based on corneal damage. A normal score was 0, increasing amounts of damage result in a higher score, with the maximum score possible being 110. A Draize score was computed at each observation time by averaging the total scores of all rabbits tested. Observations were made and recorded 24, 48, and 72 hours after treatment.
This test consists of instilling 30 to 50 μL of the product into one eye of 6 New Zealand white rabbits and monitoring to observe any abnormal clinical signs such as redness of conjunctiva, swelling, or increased blinking which may indicate irritation.

Data set [5] in a line: Toxicokinetics (plasma levels) in GLP rabbit study. It counts as in vivo. As to conditions: rabbits; topical DIOPTIN three times daily. The procedure: Screening studies were conducted to determine the highest tolerated concentration when applied topically to rabbit eyes, in conjunction with bioanalysis of corneal, aqueous humor, and lens concentrations of EV06 and its metabolites. In a GLP rabbit study, animals were treated with topical 0, 1, 3 or 4% DIOPTIN™ (lipoic acid choline ester) solution three times daily for 90 consecutive days. Slit-lamp exams and fundoscopy were performed at pre-dose baseline and after 1, 30, and 90 days of dosing. Daily clinical observations, food consumption, body weights, clinical pathology, and toxicokinetics were performed. Full necropsy and ocular histopathology were also conducted.

Data set [6] is described as follows: Corneal penetration and ocular pharmacokinetics in rabbits (HPLC-ESI/MS/MS). It counts as in vivo, rabbit. Here is the method: Esters of lipoic acid were evaluated in rabbits for corneal penetration. Rabbits were also used to examine the metabolism, absorption, and distribution of LACE (LA prodrug) using HPLC-ESI/MS/MS (LOD>2 ng/ml).
The nature of data set [7]: Stability of LACE in neat glycerol. Format: physicochemical. As to conditions: mixed in neat glycerol, 80° C. for 8 hours. The procedure:
Lipoic acid choline ester was mixed in neat glycerol (no water) with brief heating to 80° C. for 8 hours. High concentrations of lipoic acid choline ester in a final clear solution were found. The final clear solution is stable.

As to `O=C(O)CCCCC1CCSS1` (centres unmarked) [LA, lipoic acid], the “concentration of maximal effect on lens elasticity” value in data set [1] stood at 100 µM. Besides, the EC50 was 50 ± 10 µM in data set [1] (0-500 μM LA, read-out: [LA]50 for increase in lens elasticity) and 50 ± 10 µM in data set [2] (0-500 μM LA, read-out: [LA]50 for decrease in lens protein disulfides). In data set [2], the “concentration of maximal effect on lens protein disulfides” value was found to be 100 µM.

Turning to `C[N+](C)(C)CCOC(=O)CCCC[C@@H]1CCSS1.[Cl-]` [LACE chloride, lipoic acid choline ester chloride], the “stability of LACE chloride in propylene glycol” value in data set [3] (3 months storage at 5° C. and 25° C.) was “not stable”. In addition, the “conversion to peak at RRT approximately 0.73” value in data set [3] (stored at room temperature, 3 months) was “completely converted”.

On to `C[N+](C)(C)CCOC(=O)CCCC[C@@H]1CCSS1` [LACE, lipoic acid choline ester], for which the “Draize Rabbit Eye test score” value in data set [4] (30 to 50 μL into one eye, scale 0 to 110) is listed as 2.0+/−0.6. The Draize test classification entry in data set [4] (New Zealand white rabbits) is on record as “not corrosive or irritating”. Moreover, the “Plasma levels of EV06” value in data set [5] was “at or below the limits of detection”. For the same compound, the “corneal penetration compared with lipoic acid” value in data set [6] is “improve penetration over lipoic acid”. The “stability of clear solution in neat glycerol” value in data set [7] is reported as “stable”.
